The values that follow come from patent publication US20230391753A1, “THIOBENZIMIDAZOLE DERIVATIVE OR PHARMACEUTICALLY ACCEPTABLE SALT THEREOF AND USE THEREOF” (KOREA UNIVERSITY RESEARCH AND BUSINESS FOUNDATION, priority 2020, published 2023).

The subject of series [1] is HER2-positive breast cancer cell line SKBR3. In words: Cell viability assay, SKBR3. In kind it is cell-based. Particulars: SKBR3 (sensitive to Trastuzumab); 72 hours.
The next series relates to cancer cells. In words: Annexin V/PI staining. The conditions noted are these: 0.1, 0.25, and 0.5 μM for 72 hours. In kind it is cell-based. Here is the method: In addition, in order to confirm the apoptosis-inducing effect of the derivative of Chemical Formula 1-3, the control (DMSO) and the derivative of Chemical Formula 1-3 were treated at concentrations of 0.1, 0.25, and 0.5 μM for 72 hours, and then the degree of apoptosis was confirmed by Annexin V/PI staining.

The next series has as its system JIMT-1 cell line. Put plainly: DNA content analysis by flow cytometry (PI), JIMT-1. In kind it is cell-based, human. The conditions noted are these: 0.1, 0.25 and 0.5 μM for 72 hours. Here is the method: (§1) The degree of apoptosis of cancer cells induced by the thiobenzimidazole derivative of Chemical Formula 1-3 was measured through DNA content analysis using a flow cytometry. The SKBR3, BT474 and JIMT-1 cell lines were treated with a control (DMSO) and the derivative of Chemical Formula 1-3 at concentrations of 0.1, 0.25 and 0.5 μM for 72 hours, and then the cells were harvested, immobilized with 95% ethanol containing 0.5% Tween-20 for 24 hours, and then stained with propidium iodide (PI, 50 μg/mL) and RNase (50 μg/mL) for 30 minutes. Thereafter, the degree of apoptosis of cancer cells was analyzed using a flow cytometer.
(§2) The result of such apoptosis was shown on the cell cycle as a Sub G1 site, and the ratio of Sub G1 was expressed numerically and shown in FIG. 8.
Background: Flow cytometry measures light scatter and fluorescence of single cells or particles in a stream.

Series [2] concerns HER2-positive breast cancer cell line BT474. Put plainly: MTS cell viability assay, BT474. The conditions noted are these: 72 hours. In kind it is cell-based. Here is the method:
In the human breast cancer cell lines MDA-MB-231 and JIMT-1, thiobenzimidazole derivatives of Chemical Formulas 1-1, 1-2, 1-3, 1-5, 1-6, 1-7, 1-8, 1-1-11, 1-12, 1-13, 1-14, 1-15, 1-16, 1-17, 1-19, 1-20, 1-21, and 1-22 were treated at various concentrations of 0, 0.5, 1, and 5 μM for 72 hours, respectively, and then cell viability was measured by an MTS assay. In the MTS assay, the cells were attached to a 96 well plate for 24 hours, treated with the thiobenzimidazole derivatives for 72 hours, and then developed with MTS (3-(4,5-dimethylthiazol-2-yl)-5-(3-carboxymethoxyphenyl)-2-(4-sulfophenyl)-2H-tetrazolium) for 4 hours, and then absorbance was measured at 490 nm using a Spectramax Plus384 microplate analyzer. […] The HER2-positive breast cancer cell line BT474 sensitive to Trastuzumab and the HER2-positive breast cancer cell line JIMT-1 resistant to Trastuzumab were treated with the thiobenzimidazole derivative of Chemical Formula 1-3 prepared above and its hydrochloride (Compound 1-23) at the same concentrations of […], 0.1, 0.5, 1, 5, and 10 μM for 72 hours, and then cell viability and IC50 were measured by an MTS assay.

For another series, the system named is SKBR3 cell line. In words: DNA content analysis by flow cytometry (PI), SKBR3. The series is classed as cell-based. The conditions noted are these: 0.1, 0.25 and 0.5 μM for 72 hours. Here is the method: as §1, §2
The subject of a further series is BT474 cell line. In words: DNA content analysis by flow cytometry (PI), BT474. The conditions noted are these: 0.1, 0.25 and 0.5 μM for 72 hours. In kind it is cell-based. Here is the method: as §1, §2
Series [3] deals with HER2-positive breast cancer cell line JIMT-1. Put plainly: MTS cell viability assay, JIMT-1. The series is classed as cell-based, human. The conditions noted are these: 72 hours. Here is the method:
A human triple-negative breast cancer (TNBC) cell line MDA-MB-231 (Cell seeding numbers: 1(M231)×10^4 cells/wells (confluency ≥25%) and an HER2-positive breast cancer (HER2+BC) cell line JIMT-1 (Cell seeding numbers: 1.2 (JIMT)×10^4 cells/wells (confluency ≥25%) were used in the experiment.
The cell lines were cultured in a Dulbecco's modified Eagle's medium (DMEM) containing 10% fetal bovine serum (FBS), streptomycin-penicillin (100 U/mL) and Fungizone (0.625 μg/mL) in an environment of 5% CO2 and 37° C., respectively.
In the human breast cancer cell lines MDA-MB-231 and JIMT-1, thiobenzimidazole derivatives of Chemical Formulas 1-1, 1-2, 1-3, 1-5, 1-6, 1-7, 1-8, 1-1-11, 1-12, 1-13, 1-14, 1-15, 1-16, 1-17, 1-19, 1-20, 1-21, and 1-22 were treated at various concentrations of 0, 0.5, 1, and 5 μM for 72 hours, respectively, and then cell viability was measured by an MTS assay. In the MTS assay, the cells were attached to a 96 well plate for 24 hours, treated with the thiobenzimidazole derivatives for 72 hours, and then developed with MTS (3-(4,5-dimethylthiazol-2-yl)-5-(3-carboxymethoxyphenyl)-2-(4-sulfophenyl)-2H-tetrazolium) for 4 hours, and then absorbance was measured at 490 nm using a Spectramax Plus384 microplate analyzer. […]

The structures appear in SMILES notation.

With `COC(=O)Nc1nc2cc(Sc3ccc(F)cc3)ccc2[nH]1` [Chemical Formula 1-1, methyl 5-(4-fluorophenyl-thio)-1H-benzo[d]imidazol-2-ylcarbamate], the melting point (usually the temperature, or range, at which the solid turns liquid) is 232 to 233 °C.
For `COC(=O)Nc1nc2cc(Sc3ccc(N4CCN(C)CC4)cc3)ccc2[nH]1` [Chemical Formula 1-3, methyl (5-((4-(4-methylpiperazin-1-yl)phenyl)thio)-1H-benzo[d]imidazol-2-yl) carbamate], the “inhibitory effect on cell proliferation” value in series [1], in series [2] (BT474 (sensitive to Trastuzumab)) and in series [3] (JIMT-1 (resistant to Trastuzumab)) was “inhibitory effect on cell proliferation was exhibited” in each case. Further, the “early and late apoptosis (Annexin V/PI)” value in the series with cancer cells is “early and late apoptosis were effectively induced in a concentration-dependent manner”. In addition, the “G2/M phase cell cycle arrest” value in the series on JIMT-1 cell line, in the series with SKBR3 cell line and with BT474 cell line was “arrested the G2/M phase cell cycle” each time. The “apoptosis (Sub-G1 population)” value in the series on JIMT-1 cell line, in the series with SKBR3 cell line and in the series on BT474 cell line was “significantly induced apoptosis (Sub-G1 population)” each time. For the same compound, the half-maximal inhibitory concentration (IC50) (commonly the concentration that inhibits the measured activity by half) in series [2] (Homo sapiens, BT-474, BT474, MTS) amounted to 2180 nM; in series [3] (Homo sapiens, JIMT-1, MTS) it was 448 nM.
